“Also recorded” adds a separate entry of the source.
Tested on: CLL cells
Assay: Transwell migration assay of CLL cells in chemokine gradient
Type: cell-based, human
Excerpt: 2006 Nov. 1; 108(9):3143-51; Richardson S J, Matthews C, Catherwood M A, Alexander H D, Carey B S, Farrugia J, Gardiner A, Mould S, Oscier D, Copplestone J A, Prentice A G: ZAP-70 expression is associated with enhanced ability to respond to migratory and survival signals in B-cell chronic lymphocytic leukemia (CLL). Blood. 2006 May 1; 107(9):3584-92). […] CK1ε is the key component of the Wnt/PCP pathway and its quantity in the patients suffering from CLL is increased. As we show in FIG. 5B, the inhibition of CK1ε blocks the effects of Wnt5a on cell migration in the chemokine gradient. […] The extent of the migration of CLL cells in chemokine gradient after Wnt5a stimulation may be determined by the following procedure and used for the determination of the migration capacity of CLL cells that correlates closely with the infiltration of lymphatic organs and the agressiveness of the disease (Till K J, Lin K, Zuzel M., Cawley J C. The chemokine receptor CCR7 and a4 integrin are important for migration of chronic lymphocytic leukemia cells into lymph nodes. Blood. 2002 99: 2977-2984).
CLL cells were isolated by the identical procedure as in Example 6. After isolation the cells were transferred to tissue culture and subjected to Transwell assay. 96 well plates were used for the experiments (Corning, HTS Transwell®-96 Permeable Support with 5.0 μm Pore Polycarbonate Membrane). These plates consist of a bottom part including the wells and a top part that includes the inserts, the bottom of which is formed by the membrane of a defined size of pores. Each sample was measured in triplicate. The wells in the bottom part of the plate always included 0.235 ml of the medium (RPMI 1640, 0.1% FBS, 1% Penicillin Streptomycin, 1% L-glutamine) and further the required concentration of the chemokine or solvent (0.1% BSA in PBS). […] After the cultivation the inserts were removed from the transwell plate, trypsin was added to each well (100 μl) and after 5 minutes of its activity the number of the cells that migrated through the membrane were counted in each well. […]

NC(=O)c1ccc(-c2nc(-c3ccc4c(c3)OCCO4)c(-c3ccccn3)[nH]2)cc1 [D4476, reference compound]
effect of CK1 inhibition on Wnt5a-induced migration of CLL cells in the chemokine gradient (CK1 inhibitor D4476 100 uM, with Wnt5a and chemokine): blocks migration

CXCL12: chemokine CXCL12
migration of CLL cells (substance itself (alone), 20 hours, recombinant Wnt5a 200 ng/ml): influences positively the migration of CLL cells

B1: Wnt5a: recombinant Wnt5a, secreted ligand of the Wnt/PCP pathway (protein, UniProt P41221 62-380, looked up)
Protein Wnt-5a: IIGAQPLCSQLAGLSQGQKKLCHLYQDHMQYIGEGAKTGIKECQYQFRHRRWNCSTVDNTSVFGRVMQIGSRETAFTYAVSAAGVVNAMSRACREGELSTCGCSRAARPKDLPRDWLWGGCGDNIDYGYRFAKEFVDARERERIHAKGSYESARILMNLHNNEAGRRTVYNLADVACKCHGVSGSCSLKTCWLQLADFRKVGDALKEKYDSAAAMRLNSRGKLVQVNSRFNSPTTQDLVYIDPSPDYCVRNESTGSLGTQGRLCNKTSEGMDGCELMCCGRGYDQFKTVQTERCHCKFHWCCYVKCKKCTEIVDQFVCK
migration of CLL cells in the presence of the chemokine CXCL12 (combination of CXCL12 and recombinant Wnt5a (200 ng/ml), 20 hours): positively affect the migration of CLL cells; also recorded: significantly increased the migration of CLL

Source: patent publication US9057106B2, “Method of determination of diagnosis and prognosis in patients with B-cell chronic lymphocytic leukemia and oligonucleotides for use in this method” (MASARYKOVA UNIVERZITA, priority 2009, dated 2015)
